According to PMC8344022, “Small-molecule inhibitor of AF9/ENL-DOT1L/AF4/AFF4 interactions suppresses malignant gene expression and tumor growth” (Theranostics, 2021):
Where “and” joins values, the source holds several entries; their conditions need not be identical. Equal values may be shown once. No end group written: not given here. *: point of attachment. FITC = O=C1OC2(c3ccc(O)cc3Oc3cc(O)ccc32)c2ccc(NC(=S)*)cc21; Ahx = NCCCCCC(=O)O

T1: AF9-DOT1L interaction (Homo sapiens, UniProt P42568)
T1 construct: cDNA for human AF9 AHD domain (475-568) and ENL AHD domain (489-559) was synthesized; made in house; host or cells: E. coli BL21(DE3)
T1 sequence (P42568 475-568): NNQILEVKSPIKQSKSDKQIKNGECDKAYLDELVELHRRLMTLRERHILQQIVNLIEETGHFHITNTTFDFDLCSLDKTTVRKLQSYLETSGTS

T2: maltose-binding protein (MBP)-tagged ENL AHD domain (489-559) (human, UniProt Q03111 489-559)
T2 construct: human ENL, AHD domain, residues 489-559; cDNA synthesized by Genscript, in pMAL c5X; No cleavage of MBP is described; source: E. coli BL21(DE3), purified (amylose resin, size exclusion)
T2 sequence (looked up): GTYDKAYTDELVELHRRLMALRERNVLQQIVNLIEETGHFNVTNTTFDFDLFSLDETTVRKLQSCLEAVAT

T3: maltose-binding protein (MBP)-tagged AF9 AHD domain (475-568) (human, UniProt P42568 475-568)
T3 construct: human AF9, AHD domain, residues 475-568; cDNA synthesized by Genscript, in pMAL c5X; No cleavage of MBP is described; the protein is captured or detected by anti-MBP in the Alpha and pull-down assays; also called MBP-AF9 AHD; source: E. coli BL21(DE3), purified (amylose resin, size exclusion)
T3 sequence (looked up): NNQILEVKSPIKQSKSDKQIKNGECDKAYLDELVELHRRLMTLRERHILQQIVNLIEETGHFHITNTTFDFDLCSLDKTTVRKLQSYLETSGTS

B1: FITC-AHX-DOT1L peptide (peptide)
peptide: {FITC-Ahx}-NKLPVSIPLASVVLPSRAERARST
notes: Used in the FP assay; also called fluorescein-labeled DOT1L peptide; source: synthetic peptide, bought: Genscript
B2: FITC-AHX-AF4 peptide (peptide)
peptide: {FITC-Ahx}-QSLMVKITLDLLSRIPQPPGK
notes: Used in the FP assay; source: synthetic peptide, bought: Genscript
B3: FITC-AHX-AFF4 peptide (peptide)
peptide: {FITC-Ahx}-YPLIVKIDLNLLTRIPGKPYK
notes: as for B2

Tests used:
AF9-DOT1L interaction [1] = biological target: T1, AF9-DOT1L interaction; assay: Fluorescence polarization (FP) inhibition assay, AF9-DOT1L; type: binding
Description: (§1) We developed an Alpha (amplified luminescent proximity homogeneous assay) assay to determine the binding and inhibition of the PPI between maltose-binding protein (MBP)-tagged AF9 AHD and a biotin-labeled DOT1L peptide, using AlphaLisa streptavidin donor beads and anti-MBP acceptor beads. Laser excitation to the donor beads generates singlet oxygen radicals, which can travel for <200 nm in solution and cannot reach the free acceptor beads. The PPI brings the DOT1L coated donor beads and AHD coated acceptor beads together, allowing the radicals to activate the acceptor beads and produce luminescence. […] We also developed a fluorescence polarization (FP) assay. A fluorescein-labeled DOT1L peptide has a higher freedom in solution with a lower polarization value.
Fluorescence polarization assay. It was performed in 96-well black microplates with each well containing a Fluorescein-labeled peptide (2 nM) and increasing concentration of a AF9/ENL protein in a buffer (20 mM HEPES, pH 7.5, 0.01% Triton X-100, 100 µL) for Kd determination. For IC50 determination, a Fluorescein-labeled peptide (2 nM), AF9/ENL protein (100 nM) and increasing concentration of a compound in the same buffer were placed in each well. Upon incubation of 1h, the FP value of each well was determined using a Tecan SPARK microplate reader. Data were similarly processed to obtain Kd or IC50 values.

AF9-DOT1L interaction [2] = biological target: T1, AF9-DOT1L interaction; assay: Alpha assay, AF9 AHD-DOT1L peptide interaction; type: binding; settings: for IC50: read-out: IC50, inhibition of AF9-DOT1L interaction
Description: as §1
Alpha assays. Alpha assays were developed using Perkin-Elmer AlphaLisa anti-MBP kit, which contains streptavidin donor beads and anti-MBP acceptor beads. The assay was performed using a MBP-protein (5 nM), a biotinylated peptide (40 nM), and increasing concentrations of a compound in 25 µL buffer (PBS with 0.5 % BSA, pH 7.5) in 384-well plates according to the manufacturer's protocol and measured with a Tecan SPARK microplate reader. Data were imported into Prism (version 5.0), and IC50 values from 3 independent experiments with standard deviation were obtained by using a standard dose-response curve fitting.

[3] = biological target: T2, maltose-binding protein (MBP)-tagged …; assay: fluorescence polarisation; direct titration: fluorescein-labeled peptide 2 nM, increasing concentration of AF9/ENL protein; 20 mM HEPES, pH 7.5, 0.01% Triton X-100; 1 h incubation; settings: both partners purified
[4] = biological target: T3, maltose-binding protein (MBP)-tagged …; assay: as above; settings: both partners purified

Molecule | IC50 (AF9-DOT1L interaction [2]) | Kd [3] | Kd [4] | further results
CC(C)(C)c1ccc(-c2ccc(-n3cc(C(=O)NC4CCNCC4)nc3-c3ccccc3)cc2)cc1 [Compound 2] | 26.5 µM and ~25 µM |  |  | IC50 (AF9-DOT1L interaction [1]): ~25 µM
CC(C)(C)c1ccc(-n2cc(C(=O)NC3CCNCC3)nc2C2CCCCC2)cc1 [Compound 4] | 24.8 µM |  |  | 
CC(C)c1nc(C(=O)NC2CCNCC2)cn1-c1ccc(C(C)(C)C)cc1 [Compound 5] | 7.8 µM |  |  | 
Cc1nc(C(=O)NC2CCNCC2)cn1-c1ccc(C(C)(C)C)cc1 [Compound 6] | > 50 µM |  |  | 
CC(C)(C)c1ccc(-n2cc(C(=O)Nc3ccncc3)nc2-c2ccccc2)cc1 [Compound 7] | 22.7 µM |  |  | 
CC(C)(C)c1ccc(-n2cc(C(=O)NCC3CCNCC3)nc2-c2ccccc2)cc1 [Compound 8] | 29.2 µM |  |  | 
CC(C)(C)c1ccc(-n2cc(C(=O)Nc3ccc(Cl)c(F)c3)nc2-c2ccccc2)cc1 [Compound 9] | > 50 µM |  |  | IC50, inhibition of AF9-DOT1L interaction (AF9-DOT1L interaction [2]): inactive
B1 |  | 0.64 ± 0.06 µM | 0.087 ± 0.009 µM | 
B2 |  | 0.0096 ± 0.0017 µM | 0.018 ± 0.001 µM | 
B3 |  | 0.031 ± 0.006 µM | 0.015 ± 0.001 µM | 
